# In patent US9211249B2, “Methods and compositions for transdermal delivery of caffeine in the form of solutions or suspensions” (priority 2013, dated 2015):
# Experiment: Solubility of caffeine in caffeine-containing compositions containing various helper esters
# Conditions: compared with caffeine in pure water; Tables 1-9
smiles,measurement,value
CC(C)OC(=O)[C@@H](N)Cc1c[nH]c2ccccc12 [tryptophan isopropyl ester],solubility of caffeine in water with helper ester (statement in words),increased
